Values joined by “and” are separate entries in the source; they are usually repeats but may differ in a detail not shown here. Equal entries are not always repeated. Where two headings read alike, the source gives them in different places.
Experiments:
[1] = plasma pamiparib pharmacokinetics in patients (LC‐MS/MS); assay type: in vivo, human; settings: for Cmax / half-life: plasma, po
Excerpt: Part 1 of the study included a screening phase of up to 28 days prior to drug administration to assess eligibility. Patients were admitted to the clinical research unit (CRU) at Royal Liverpool University Hospital (Liverpool, UK)/Clatterbridge Cancer Centre NHS Foundation Trust (Bebington, Wirral, UK) on day −1 and received a single dose of 60‐mg/100 μCi [^14C]‐pamiparib orally the morning of day 1. Patients remained in the CRU until completion of assessments on day 7, when discharge criteria of ≈90% of the radioactive dose being recovered or <1% of the radioactive dose being recovered in urine and feces for 2 consecutive 24‐hour collection intervals were met. If discharge criteria were not met by day 7, patients collected 24‐hour excreta samples up to day 14 on an outpatient basis. Part 2 of the study, evaluating the safety/tolerability and antitumor activity of 60 mg twice‐daily pamiparib in patients with advanced and/or metastatic solid tumors, is ongoing and is not included in this report.
Patients fasted overnight and 2 hours after oral administration of a single 60‐mg dose containing ≈100 μCi (3.7‐3.9 MBq) of [^14C]‐pamiparib with ≈240 mL of room‐temperature water or juice (orange or grape). The residual radioactivity present in each vial postdose was corrected from the dose. The radioactive dose of 100 μCi of [^14C]‐pamiparib provided minimum risk to patients according to the dosimetry calculation from a quantitative whole‐body autoradiography study in male and female Long Evans rats; the dose also provided sufficient signal for total radioactivity counting and quantitative radioprofiling in blood, plasma, and excreta (data on file). Patients were not permitted to lie in the supine position for 2 hours after drug administration, except if required because of an adverse event (AE) and/or study procedure.
Total radioactivity was analyzed at Covance Laboratories (Harrogate, North Yorkshire, UK), and metabolite profiling was conducted at Covance Laboratories (Madison, Wisconsin). Determination of pamiparib concentrations in plasma and total radioactivity in plasma and whole blood was performed predose and 0.25, 0.5, 1, 1.5, 2, 2.5, 3, 6, 12, 24, 48, 72, 96, 120, and 144 hours postdose. Pamiparib concentrations in plasma and urine were determined at Covance Laboratories (Salt Lake City, Utah) with validated liquid chromatography‐tandem mass spectrometry (LC‐MS/MS) methods.
An aliquot of human plasma (25 μL) containing dipotassium ethylenediaminetetraacetic acid as anticoagulant or urine (25 μL) was added with the internal standard (20.0 μL of 400 ng/mL BGB‐326) in water:ACN (50:50 v/v) followed by the addition of water:ACN (50:50 v/v, 20.0 μL). The plasma samples were centrifugated and vortexed followed by the addition of 200 μL of 5% NH4OH and 100 μL of water. After centrifugation, the supernatant (50 μL) was loaded to Biotage Isolute supported liquid extraction plate (Biotage, Holliston, Massachusetts) and eluted with methyl tert‐butyl ether (700 μL). The eluted samples were dried down at 45°C in TurboVap for 30 minutes and reconstituted in 400 μL of water:MeOH (80:20 v/v), followed by LC‐MS/MS analysis. The urine samples were centrifuged and vortexed followed by the addition of 200 μL of ACN. After centrifugation, 100 μL of the samples was transferred to a plate followed by the addition of 300 μL of water. The samples were centrifugated again before LC‐MS/MS analysis. The LC‐MS/MS instrumentation was the same for plasma and urine analysis including a LEAP autosampler (LEAP Technologies, Chapel Hill, North Carolina), a Shimadzu SCL‐10A controller with LC‐10AD pump (Shimadzu, Columbia, Maryland), and a Sciex API 5000 mass spectrometer (Sciex, Framingham, Massachusetts) equipped with a XBridge Phenyl column (2.1 × 50 mm, 5 μm; Waters, Pleasanton, California). The mobile phase A is 10 mM ammonium formate in water, and mobile phase B is MeOH:ACN (50:50 v/v). […]

[2] = test system: human liver microsomes (HLMs); assay: metabolic stability in human liver microsomes; assay type: in vitro ADME; settings: 90‐minute incubation in HLMs without CYP inhibitors
Protocol: (§1) Metabolic stability in human liver microsomes (HLMs) and cytochrome P450 (CYP450) phenotyping assays were conducted in 3D BioOptima (Suzhou, China) using validated methodology, [13] to determine the intrinsic clearance and enzymes responsible for metabolism of pamiparib. HLMs for microsome stability was from BD Biosciences (Woburn, New York). For phenotyping, HLMs and recombinant P450 (rCYP) were from Corning (Woburn, New York). Pamiparib (1 μM) was incubated with pooled HLM (0.5 mg/mL), NADPH (1 mM), and MgCl2 (3 mM) terminated at 0, 5, 15, 30, 60, and 90 minutes. The intrinsic clearance was calculated as 0.693/(t1/2 × HLM concentration), where t1/2 is the half‐life of pamiparib determined in HLMs. For phenotyping in HLMs, pamiparib (1 μM) was incubated in the absence or presence of isoform‐selective inhibitors: 0.2 μM α‐naphthoflavone for CYP1A2, 2 μM clopidogrel for CYP2B6, 16 μM montelukast for CYP2C8, 10 μM sulfaphenazole for CYP2C9, 30 μM nootkatone for CYP2C19, 2 μM quinidine for CYP2D6, and 1 μM ketoconazole for CYP3A. The following isoform‐selective probe substrates served as positive controls: 40 μM phenacetin for CYP1A2, 100 μM bupropion for CYP2B6, 2 μM amodiaquine for CYP2C8, 5 μM diclofenac for CYP2C9, 40 μM S‐mephenytoin for CYP2C19, 5 μM dextromethorphan for CYP2D6, and 2 μM midazolam for CYP3A4. […] Pamiparib (1 μM) was also incubated with rCYP1A2, rCYP2B6, rCYP2C8, rCYP2C9, rCYP2C19, rCYP2D6, or rCYP3A4 (50 pmol/mL) for 90 minutes with NADPH and MgCl2. The following isoform‐selective probe substrates served as positive controls: 1 μM phenacetin for CYP1A2, 2 μM bupropion for CYP2B6, 2 μM amodiaquine for CYP2C8, 2 μM diclofenac for CYP2C9, 10 μM S‐mephenytoin for CYP2C19, 1 μM dextromethorphan for CYP2D6, and 20 μM midazolam for CYP3A4. Pamiparib, M1, and M2 were analyzed by LC‐MS/MS.

[3] = metabolic stability in human liver microsomes; assay type: in vitro ADME; settings: human, pooled human liver microsomes, 1 μM, 0.5 mg/mL HLM, NADPH
Protocol: as §1

[4] = cited from earlier work
[5] = single oral 60 mg/100 μCi, n = 4
[6] = 60‐mg single dose, n = 11, ref BGB‐290‐AU‐002, NCT02361723

C[C@]12CCCN1CC1=NNC(=O)c3cc(F)cc4[nH]c2c1c34 [Pamiparib]
geometric coefficient of variation of parent AUCs among 4 subjects [1]: < 22%
AUC ([1]; human, oral, 60 mg, as printed in discussion, read-out: AUC0‐t, geometric mean (LC‐MS/MS)): 29200 ng·h/mL
Cmax ([1]; human, 60 mg, single oral 60 mg/100 μCi, n = 4, read-out: Cmax, arithmetic mean (SD)): 2210 ng/mL
Cmax ([1]; human, 60 mg, single oral 60 mg/100 μCi, n = 4, read-out: Cmax, geometric mean (CV%)): 2190 ng/mL
half-life ([1]; human, 60 mg, single oral 60 mg/100 μCi, n = 4, read-out: t1/2, arithmetic mean (SD) (converted)): 29.2 h
half-life ([1]; human, 60 mg, single oral 60 mg/100 μCi, n = 4, read-out: t1/2, geometric mean (CV%) (converted)): 28.7 h
Tmax ([1]; human, single oral 60 mg/100 μCi, n = 4, read-out: tmax, median (min, max)): 2 h
CL/F, arithmetic mean (SD) [1, 5]: 2.25 (0.55) L/h
CL/F, geometric mean (CV%) [1, 5]: 2.21 (23.2) L/h
CL/F, geometric mean (CV%) ([1]; single oral 60 mg/100 μCi, n = 4, listed as pamiparib): ≈ 2.2 L/h and 2.21 L/h
pamiparib remaining [2]: 45.0%
half-life at 1 μM [3]: 3 h
microsomal CLint at 1 μM ([3]; read-out: intrinsic clearance in HLM): 7.9 µL/min/mg
AUC0‐inf, geometric mean [4, 6]: 32 005 ng·h/mL
Cmax, geometric mean [4, 6]: 1881 ng/mL
pharmacokinetic profile (dose linearity) ([4]; tested dose range 2.5‐120 mg): linear
tolerability ([4]; up to 60 mg, patients): generally well tolerated

From publication PMC8453745, “Human Mass Balance and Metabolite Profiling of [^14C]‐Pamiparib, a Poly (ADP‐Ribose) Polymerase Inhibitor, in Patients With Advanced Cancer” (Clinical Pharmacology in Drug Development, 2021)
